Experimental data: patent publication US10517889B2, “Modulators of SMAD7 expression” (Ionis Pharmaceuticals, Inc., priority 2017, dated 2019)
Strand notation (5' to 3'): a small letter for the sugar, then the base; units joined by * are phosphorothioate-linked, units joined directly phosphodiester-linked; [ ] holds rarer units or linkages, { } end groups; capitals alone tell only the bases. k = constrained ethyl (cEt); [5mC] = 5-methylcytosine; d = 2'-deoxy (DNA)

test system: human SMAD7 mRNA; assay: Antisense inhibition of human SMAD7 mRNA expression in Hep3B cells by 3-10-3 cEt gapmers, 10,000 nM, electroporation (Example 2); type: cell-based; conditions: Hep3B cells, electroporation with 10,000 nM antisense oligonucleotide, approximately 24 hours, primer probe set RTS5062, relative to untreated control cells
How it was run: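 qRT-PCR (RTS5062) of SMAD7 mRNA, normalised to RIBOGREEN total RNA, gave percent inhibition relative to untreated controls. Hep3B cells at 20,000 per well received 10,000 nM oligonucleotide by electroporation, with ~24 h treatment.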

Substance | % inhibition of SMAD7 mRNA expression | % Inhibition
799105 (antisense k[5mC]*kT*kA*dA*dG*dT*d[5mC]*d[5mC]*dG*dG*dG*dA*dA*kA*kA*kA) [compound 799105] | 12% | –
799106 (antisense kT*kT*kT*dT*d[5mC]*dT*dA*dA*dG*dT*d[5mC]*d[5mC]*dG*kG*kG*kA) [compound 799106] | 34% | –
799107 (antisense k[5mC]*kT*kG*dG*dT*dT*dT*dT*d[5mC]*dT*dA*dA*dG*kT*k[5mC]*k[5mC]) [compound 799107] | 51% | –
799108 (antisense k[5mC]*kT*kG*dA*dG*d[5mC]*dT*dG*dG*dT*dT*dT*dT*k[5mC]*kT*kA) [compound 799108] | 64% | –
799109 (antisense k[5mC]*kA*kG*dT*dG*d[5mC]*dT*dG*dA*dG*d[5mC]*dT*dG*kG*kT*kT) [compound 799109] | 48% | –
799110 (antisense kA*kG*kG*d[5mC]*dA*dG*dT*dG*d[5mC]*dT*dG*dA*dG*k[5mC]*kT*kG) [compound 799110] | 33% | –
799111 (antisense kA*kG*k[5mC]*dA*dG*dG*d[5mC]*dA*dG*dT*dG*d[5mC]*dT*kG*kA*kG) [compound 799111] | 50% | –
799112 (antisense kG*kG*kG*dA*dG*d[5mC]*dA*dG*dG*d[5mC]*dA*dG*dT*kG*k[5mC]*kT) [compound 799112] | 58% | –
799113 (antisense kG*kA*kT*dG*dG*dG*dA*dG*d[5mC]*dA*dG*dG*d[5mC]*kA*kG*kT) [compound 799113] | – | 57%
799114 (antisense k[5mC]*kA*kG*dG*dA*dT*dG*dG*dG*dA*dG*d[5mC]*dA*kG*kG*k[5mC]) [compound 799114] | – | 35%
799115 (antisense kA*k[5mC]*kA*d[5mC]*dA*dG*dG*dA*dT*dG*dG*dG*dA*kG*k[5mC]*kA) [compound 799115] | – | 40%
799116 (antisense kT*kA*kA*d[5mC]*dA*d[5mC]*dA*d[5mC]*dA*dG*dG*dA*dT*kG*kG*kG) [compound 799116] | – | 34%
799117 (antisense kG*k[5mC]*kT*dT*dA*dA*d[5mC]*dA*d[5mC]*dA*d[5mC]*dA*dG*kG*kA*kT) [compound 799117] | – | 46%
799119 (antisense kA*kG*k[5mC]*dA*dG*dA*dG*d[5mC]*dT*dT*dA*dA*d[5mC]*kA*k[5mC]*kA) [compound 799119] | – | 50%
799120 (antisense kA*kA*kT*dA*dG*d[5mC]*dA*dG*dA*dG*d[5mC]*dT*dT*kA*kA*k[5mC]) [compound 799120] | – | 45%
799121 (antisense k[5mC]*k[5mC]*kT*dA*dA*dT*dA*dG*d[5mC]*dA*dG*dA*dG*k[5mC]*kT*kT) [compound 799121] | – | 25%
799122 (antisense k[5mC]*kT*kG*dG*d[5mC]*d[5mC]*dT*dA*dA*dT*dA*dG*d[5mC]*kA*kG*kA) [compound 799122] | – | 29%
799123 (antisense k[5mC]*kT*kT*dG*d[5mC]*dT*dG*dG*d[5mC]*d[5mC]*dT*dA*dA*kT*kA*kG) [compound 799123] | 23% | –
799124 (antisense k[5mC]*k[5mC]*kG*d[5mC]*dT*dT*dG*d[5mC]*dT*dG*dG*d[5mC]*d[5mC]*kT*kA*kA) [compound 799124] | 17% | –
799125 (antisense kT*k[5mC]*k[5mC]*d[5mC]*d[5mC]*dG*d[5mC]*dT*dT*dG*d[5mC]*dT*dG*kG*k[5mC]*k[5mC]) [compound 799125] | 62% | –
799126 (antisense kG*kA*k[5mC]*dA*dT*d[5mC]*d[5mC]*d[5mC]*d[5mC]*dG*d[5mC]*dT*dT*kG*k[5mC]*kT) [compound 799126] | 4% | –
799127 (antisense kA*kG*kG*dG*dA*d[5mC]*dA*dT*d[5mC]*d[5mC]*d[5mC]*d[5mC]*dG*k[5mC]*kT*kT) [compound 799127] | 67% | –
799128 (antisense k[5mC]*k[5mC]*k[5mC]*dA*dG*dG*dG*dA*d[5mC]*dA*dT*d[5mC]*d[5mC]*k[5mC]*k[5mC]*kG) [compound 799128] | 63% | –
799129 (antisense k[5mC]*k[5mC]*kT*d[5mC]*d[5mC]*d[5mC]*dA*dG*dG*dG*dA*d[5mC]*dA*kT*k[5mC]*k[5mC]) [compound 799129] | 37% | –
799130 (antisense kG*kT*k[5mC]*d[5mC]*d[5mC]*dT*d[5mC]*d[5mC]*d[5mC]*dA*dG*dG*dG*kA*k[5mC]*kA) [compound 799130] | 1% | –

Substance | % inhibition of SMAD7 mRNA expression | % Inhibition
799131 (antisense k[5mC]*kA*kT*dG*dT*d[5mC]*d[5mC]*d[5mC]*dT*d[5mC]*d[5mC]*d[5mC]*dA*kG*kG*kG) [compound 799131] | 6% | –
799132 (antisense kA*kA*kG*d[5mC]*dA*dT*dG*dT*d[5mC]*d[5mC]*d[5mC]*dT*d[5mC]*k[5mC]*k[5mC]*kA) [compound 799132] | 38% | –
799133 (antisense kG*k[5mC]*kT*dA*dA*dG*d[5mC]*dA*dT*dG*dT*d[5mC]*d[5mC]*k[5mC]*kT*k[5mC]) [compound 799133] | – | 17%
799134 (antisense kA*k[5mC]*kT*dG*d[5mC]*dT*dA*dA*dG*d[5mC]*dA*dT*dG*kT*k[5mC]*k[5mC]) [compound 799134] | – | 17%
799135 (antisense kG*kG*kG*dA*d[5mC]*dT*dG*d[5mC]*dT*dA*dA*dG*d[5mC]*kA*kT*kG) [compound 799135] | – | 38%
799136 (antisense k[5mC]*kT*kT*d[5mC]*dT*dT*dG*dG*dA*dG*dG*dG*dA*kA*kG*kG) [compound 799136] | – | 3%
799137 (antisense kA*kA*kT*d[5mC]*d[5mC]*dT*dT*d[5mC]*dT*dT*dG*dG*dA*kG*kG*kG) [compound 799137] | – | 49%
799138 (antisense k[5mC]*k[5mC]*kA*dA*dA*dT*d[5mC]*d[5mC]*dT*dT*d[5mC]*dT*dT*kG*kG*kA) [compound 799138] | – | 7%
799139 (antisense k[5mC]*kG*kG*dA*d[5mC]*d[5mC]*dA*dA*dA*dT*d[5mC]*d[5mC]*dT*kT*k[5mC]*kT) [compound 799139] | – | 56%
799140 (antisense kT*kG*kA*d[5mC]*dG*dG*dA*d[5mC]*d[5mC]*dA*dA*dA*dT*k[5mC]*k[5mC]*kT) [compound 799140] | – | 60%
799141 (antisense kT*kT*kA*dT*dG*dA*d[5mC]*dG*dG*dA*d[5mC]*d[5mC]*dA*kA*kA*kT) [compound 799141] | – | 47%
799142 (antisense kG*kG*kG*dT*dT*dA*dT*dG*dA*d[5mC]*dG*dG*dA*k[5mC]*k[5mC]*kA) [compound 799142] | – | 38%
799145 (antisense k[5mC]*kT*kT*dG*dG*dG*dT*dT*dA*dT*dG*dA*d[5mC]*kG*kG*kA) [compound 799145] | 46% | –
799146 (antisense kT*kA*k[5mC]*d[5mC]*dT*dT*dG*dG*dG*dT*dT*dA*dT*kG*kA*k[5mC]) [compound 799146] | 0% | –
799147 (antisense kG*kT*kA*d[5mC]*d[5mC]*dT*dT*dG*dG*dG*dT*dT*dA*kT*kG*kA) [compound 799147] | 28% | –
799148 (antisense kT*kG*kG*dT*dA*d[5mC]*d[5mC]*dT*dT*dG*dG*dG*dT*kT*kA*kT) [compound 799148] | 29% | –
799149 (antisense kG*kG*kA*dT*dG*dG*dT*dA*d[5mC]*d[5mC]*dT*dT*dG*kG*kG*kT) [compound 799149] | 46% | –
799150 (antisense k[5mC]*kT*kA*dG*dG*dA*dT*dG*dG*dT*dA*d[5mC]*d[5mC]*kT*kT*kG) [compound 799150] | 22% | –
799151 (antisense kA*kG*k[5mC]*d[5mC]*dT*dA*dG*dG*dA*dT*dG*dG*dT*kA*k[5mC]*k[5mC]) [compound 799151] | 39% | –
799152 (antisense kT*kG*kT*d[5mC]*dA*dG*d[5mC]*d[5mC]*dT*dA*dG*dG*dA*kT*kG*kG) [compound 799152] | 33% | –
799153 (antisense kG*kT*kT*dA*dG*dG*dT*dG*dT*d[5mC]*dA*dG*d[5mC]*k[5mC]*kT*kA) [compound 799153] | – | 68%
799154 (antisense kA*kG*kA*dG*dT*dT*dA*dG*dG*dT*dG*dT*d[5mC]*kA*kG*k[5mC]) [compound 799154] | – | 39%
799155 (antisense kA*kG*kA*dA*dG*dA*dG*dT*dT*dA*dG*dG*dT*kG*kT*k[5mC]) [compound 799155] | – | 32%
799156 (antisense kG*kA*kA*dA*dG*dA*dA*dG*dA*dG*dT*dT*dA*kG*kG*kT) [compound 799156] | – | 37%
799157 (antisense kG*kT*kT*dG*dT*dA*dG*dA*dA*dG*dA*dA*dA*kT*kG*kA) [compound 799157] | – | 39%
